Literature values in US7393545B2, “Lipstatin derivative—soluble fiber tablets” (priority 1999, dated 2008).

Columns and labels:
[1] = diet-induced obese rats, 27 mg/kg/day
pancreatic lipase = target: T1, pancreatic lipase (Homo sapiens, UniProt P16233)
T1 sequence (P16233 17-465): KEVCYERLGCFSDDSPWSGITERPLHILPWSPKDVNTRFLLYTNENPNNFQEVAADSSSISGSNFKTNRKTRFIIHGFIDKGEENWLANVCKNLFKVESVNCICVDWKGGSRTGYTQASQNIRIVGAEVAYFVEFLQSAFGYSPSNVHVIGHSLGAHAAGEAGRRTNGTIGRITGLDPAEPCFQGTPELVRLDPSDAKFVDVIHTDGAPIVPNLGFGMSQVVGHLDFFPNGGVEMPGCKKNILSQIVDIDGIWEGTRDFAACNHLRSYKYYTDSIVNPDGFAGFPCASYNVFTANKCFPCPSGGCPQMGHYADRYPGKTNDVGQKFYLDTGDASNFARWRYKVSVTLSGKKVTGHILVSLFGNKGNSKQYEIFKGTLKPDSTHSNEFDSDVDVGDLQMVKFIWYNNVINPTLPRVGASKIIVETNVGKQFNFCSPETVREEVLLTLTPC

[2] = in vivo
[3] = first year of a 2 year study, 228 patients, 3× daily, mildly hypocaloric diet
[4] = placebo-controlled clinical studies, over 5000 obese patients

## CCCCCCCCCCC[C@@H](C[C@@H]1OC(=O)[C@H]1CCCCCC)OC(=O)[C@H](CC(C)C)NC=O [Orlistat, tetrahydrolipostatin]
[3]
  more weight lost than the placebo controlled group: 65%
  share of patients having lost >10% of their bodyweight: ⅓
First year of a two year study, moderately reduced calorie diet
  patients who lost 10% or more body weight compared to placebo and diet alone: 3 times
[4]
  adverse side-effects: no major adverse side-effects
  weight loss: significant weight loss
[1]
  decrease in carcass fat: 54 g
  decrease in liver weight: 13%
  increase in large intestine weight: 38%
  increase in small intestine weight: 27%
  loss of body weight: 65 g
  retroperitoneal (RP) pad weight: decreases
[1]; decreased from 93-94%
  fat absorption: 17-19%
Pancreatic lipase
  inhibition of pancreatic lipase: potent and selective inhibitor
[2]
  fat contained in food whose absorption is prevented: about one third
